Our source for the CC50 values is article PMC12101465, “Synthesis and anti-mycobacterial activity of novel medium-chain β-lactone derivatives: a multi-target strategy to combat Mycobacterium abscessus” (RSC Medicinal Chemistry, 2025).

Converted amounts (≈) assume the structure as drawn.

The series is described as follows: in vitro. Set-up: resazurin reduction viability assay, fluorescence, cytotoxicity on murine macrophages. As to conditions: mouse, raw macrophages; read-out: CC50 (µg/mL) Raw264.7. As for the experimental part:
The cytotoxicity of the new synthesized β-lactone analogs against eukaryotic cells was measured based on the reduction of resazurin as a value of cellular viability by metabolic activity, as previously described.[45,54,55] Murine (Raw264.7) macrophages (American Type Culture Collection TIB-71) were incubated with two-fold dilution of each compound for 24 h at 37 °C and 5% CO2. Then, 20 μL of a 0.025% (w/v) resazurin solution was added to each well, and fluorescence was measured following a 4 h incubation as described above. The compound concentration leading to 50% macrophage cell death was defined as the CC50.[28,29,56] All experiments were performed as three independent biological replicates. See ESI ^† for detailed protocol. 3.5. Cell toxicity of beta-lactone derivatives
For `C#CCCCC1C(=O)OC1CCC` (stereo not shown) [VM049p, 3-(Pent-4-yn-1-yl)-4-propyloxetan-2-one], the CC50 at 24 h amounted to 68.1 ± 3.1 µg/mL (≈ 378 µM). As to `CCCCCCCCCC[C@@H]1C(=O)O[C@@H]1CCC` (racemic) [VM027, (±)-cis 3-Decyl-4-propyloxetan-2-one], the CC50 at 24 h is more than 125 µg/mL. The figure for `CCCCCCCCCCCCC1(F)C(=O)OC1CCC` (stereo not shown) [VM044, 3-Dodecyl-3-fluoro-4-propyloxetan-2-one] is more than 125 µg/mL; for `CCCCCCCC/C=C\CCCCCC[C@@H]1C(=O)O[C@H]1CC` (racemic) [VM017, (±)-trans (Z)-4-Ethyl-3-(hexadec-7-en-1-yl)oxetan-2-one] it is more than 125 µg/mL; for `CCCCCCCCCC[C@@H]1C(=O)O[C@H]1CCC` (racemic) [VM026, (±)-trans 3-Decyl-4-propyloxetan-2-one] it is more than 125 µg/mL.

Consider `CCCCCCCC/C=C\CCCCCC[C@@H]1C(=O)O[C@@H]1CCCCCC` (racemic) [VM024, (±)-cis (Z)-3-(Hexadec-7-en-1-yl)-4-hexyloxetan-2-one], for which the CC50 at 24 h is more than 125 µg/mL.

Take `CCCCCCCC/C=C\CCCCCCCC[C@@H]1C(=O)O[C@H]1CCC` (racemic) [VM029, (±)-trans (Z)-3-(Octadec-9-en-1-yl)-4-propyloxetan-2-one]: the CC50 at 24 h was more than 125 µg/mL. For `CCCCCCCC/C=C\CCCCCCCC[C@@H]1C(=O)O[C@@H]1CCC` (racemic) [VM030, (±)-cis (Z)-3-(Octadec-9-en-1-yl)-4-propyloxetan-2-one], the CC50 at 24 h is more than 125 µg/mL. `C#CCCC1OC(=O)C1CCCCCCCCCCCC` (stereo not shown) [VM054p, 4-(But-3-yn-1-yl)-3-dodecyloxetan-2-one]: the CC50 at 24 h was more than 125 µg/mL. The figure for `CCCCCCCC/C=C\CCCCCCC[C@H]1OC(=O)[C@H]1CCC` (racemic) [VM037, (±)-cis 4-((Z)-Heptadec-8-en-1-yl)-3-propyloxetan-2-one] is more than 125 µg/mL; for `CCCCCCCC[C@@H]1C(=O)O[C@@H]1CCC` (racemic) [VM039, (±)-cis 3-Octyl-4-propyloxetan-2-one] it is 119 ± 4 µg/mL (≈ 526 µM); for `CCCCCC[C@@H]1C(=O)O[C@H]1CCC` (racemic) [VM019, (±)-trans 3-Hexyl-4-propyloxetan-2-one] it is more than 125 µg/mL.

In the case of `C#CCCC[C@@H]1C(=O)O[C@H]1CCC` (racemic) [VM050p, (±)-trans 3-(Pent-4-yn-1-yl)-4-propyloxetan-2-one], the CC50 at 24 h turned out to be 44.1 ± 2.4 µg/mL (≈ 245 µM). For `CCCCCCCCOCCCCCCCCC1(F)C(=O)OC1CCC` (stereo not shown) [VM046, 3-Fluoro-3-(8-(octyloxy)octyl)-4-propyloxetan-2-one], the CC50 at 24 h is more than 125 µg/mL. The figure for `CCC[C@@H]1OC(=O)[C@H]1CCCCCCCCN=[N+]=[N-]` (racemic) [VM055p, (±)-trans 3-(8-Azidooctyl)-4-propyloxetan-2-one] is more than 125 µg/mL. The figure for `CCCCCCCC[C@@H]1C(=O)N[C@H]1CCC` (racemic) [VM057, (±)-trans 3-Octyl-4-propylazetidin-2-one] is 52.7 ± 1.1 µg/mL (≈ 234 µM); for `CCCCCCCC/C=C\CCCCCCC[C@@H]1OC(=O)[C@H]1CCC` (racemic) [VM036, (±)-trans 4-((Z)-Heptadec-8-en-1-yl)-3-propyloxetan-2-one] it is more than 125 µg/mL. The figure for `CCCCCCCCCCCCC1C(=O)NC1CCC` (stereo not shown) [VM056, 3-Dodecyl-4-propylazetidin-2-one] is 30.6 ± 1.1 µg/mL (≈ 109 µM). Take `CCCCCCCC(=O)NCCCCCCC1C(=O)OC1CCC` (stereo not shown) [VM048, N-(6-(2-Oxo-4-propyloxetan-3-yl)hexyl)octanamide]: the CC50 at 24 h was more than 125 µg/mL. The figure for `CCCCCCCCCCCC[C@@H]1C(=O)O[C@@H]1CCC` (racemic) [VM041, (±)-cis 3-Dodecyl-4-propyloxetan-2-one] is more than 125 µg/mL; for `CCCCCCCCCCCC[C@@H]1C(=O)O[C@H]1CCC` (racemic) [VM040, (±)-trans 3-Dodecyl-4-propyloxetan-2-one] it is more than 125 µg/mL. The figure for `CCCCCCCCC1C(=O)NC1CCC` (stereo not shown) [VM058, 3-Octyl-4-propylazetidin-2-one] is 40.1 ± 0.6 µg/mL (≈ 178 µM).

As to `CCCCCCCC/C=C\CCCCCCCCC1C(=O)OC1CCC` (stereo not shown) [VM028, (Z)-3-(Octadec-9-en-1-yl)-4-propyloxetan-2-one], the CC50 at 24 h is more than 125 µg/mL.

On to `C#CCCCCCCCCCC1C(=O)OC1CCC` (stereo not shown) [VM051p, 4-Propyl-3-(undec-10-yn-1-yl)oxetan-2-one], for which the CC50 at 24 h is more than 125 µg/mL. The figure for `CCCCCCCC/C=C\CCCCCC[C@@H]1C(=O)O[C@H]1CCCCCC` (racemic) [VM022, (±)-trans (Z)-3-(Hexadec-7-en-1-yl)-4-hexyloxetan-2-one] is more than 125 µg/mL; for `CCCCCCCC/C=C\CCCCCC[C@@H]1C(=O)O[C@@H]1CC` (racemic) [VM018, (±)-cis (Z)-4-Ethyl-3-(hexadec-7-en-1-yl)oxetan-2-one] it is more than 125 µg/mL; for `CCCCCCCCCCC1C(=O)OC1CCC` (stereo not shown) [VM025, 3-Decyl-4-propyloxetan-2-one] it is more than 125 µg/mL.

On to `CCCCCCCC/C=C\CCCCCCC1(F)C(=O)OC1CCC` (stereo not shown) [VM042, (Z)-3-Fluoro-3-(hexadec-7-en-1-yl)-4-propyloxetan-2-one], for which the CC50 at 24 h was more than 125 µg/mL. In the case of `CCCCCCCCOCCCCCCCCC1C(=O)OC1CCC` (stereo not shown) [VM045, 3-(8-(Octyloxy)octyl)-4-propyloxetan-2-one], the CC50 at 24 h is more than 125 µg/mL. Take `CCCCCCCCC1(F)C(=O)OC1CCC` (mixture of isomers) [VM043, 3-Fluoro-3-octyl-4-propyloxetan-2-one]: the CC50 at 24 h was more than 125 µg/mL.

As for `C#CCCCCCC[C@@H]1C(=O)O[C@H]1CCC` (racemic) [VM053p, (±)-trans 3-(Oct-7-yn-1-yl)-4-propyloxetan-2-one], the CC50 at 24 h is more than 125 µg/mL. As for `CCCCCCCC/C=C\CCCCCC[C@@H]1C(=O)O[C@@H]1CCCCCCCCC` (racemic) [VM023, (±)-cis (Z)-3-(Hexadec-7-en-1-yl)-4-nonyloxetan-2-one], the CC50 at 24 h was more than 125 µg/mL. The figure for `CCCCCCCC/C=C\CCCCCC[C@@H]1C(=O)O[C@H]1CCCCCCCCC` (racemic) [VM021, (±)-trans (Z)-3-(Hexadec-7-en-1-yl)-4-nonyloxetan-2-one] is more than 125 µg/mL; for `C#CCCCCCCC[C@@H]1C(=O)O[C@H]1CCC` (racemic) [VM052p, (±)-trans 3-(Non-8-yn-1-yl)-4-propyloxetan-2-one] it is more than 125 µg/mL; for `CCCCCCNC(=O)CCCCCCCC1C(=O)OC1CCC` (stereo not shown) [VM047, N-Hexyl-8-(2-oxo-4-propyloxetan-3-yl)octanamide] it is more than 125 µg/mL. The figure for `CCCCCCCC[C@@H]1C(=O)O[C@H]1CCC` (racemic) [VM038, (±)-trans 3-Octyl-4-propyloxetan-2-one] is more than 125 µg/mL; for `C#CCCC1OC(=O)C1CCCCCCCC/C=C\CCCCCCCC` (stereo not shown) [VM035p, (Z)-4-(But-3-yn-1-yl)-3-(octadec-9-en-1-yl)oxetan-2-one] it is more than 125 µg/mL.
